Data on ten compounds can be found in ChEMBL document CHEMBL4196125, “Identification of N-Benzyl 3,5-Dinitrobenzamides Derived from PBTZ169 as Antitubercular Agents” (ACS Med Chem Lett, 2018).

≈ marks a conversion by molar mass, not a printed value.

Holding throughout (type): functional
Assay [1] relates to Mycobacterium tuberculosis. The assay is described as follows: Antitubercular activity against Mycobacterium tuberculosis H37Rv harboring GFP measured after 7 days by fluorescence assay. The settings on record: 168 h.
Assay [2] has as its system Mycobacterium tuberculosis. Put plainly: Antitubercular activity against isoniazid/rifampicin-resistant Mycobacterium tuberculosis 14231 clinical isolate measured after 7 days by microplate alamar blue assay. The settings on record: Mycobacterium tuberculosis, 14231, 168 h. A general note: Alamar Blue is a resazurin reagent that responds to reducing activity.
Assay [3] has as its system Mycobacterium tuberculosis. The assay is described as follows: Antitubercular activity against isoniazid/rifampicin-resistant Mycobacterium tuberculosis 12525 clinical isolate measured after 7 days by microplate alamar blue assay. The settings on record: Mycobacterium tuberculosis, 12525, 168 h.

Consider `COc1ccc(OCCNC(=O)c2cc([N+](=O)[O-])cc([N+](=O)[O-])c2)cc1`, for which the MIC (usually the least concentration at which growth counts as inhibited) in assay [1] is 0.075 µg/mL (≈ 0.208 µM). As for `O=C(NCc1ccc(N2CC3CCCCC3C2)cc1)c1cc([N+](=O)[O-])cc([N+](=O)[O-])c1` (centres undefined), the figures for the MIC90 in assay [2] and in assay [3] were 0.125 µg/mL (≈ 0.294 µM) and 0.031 µg/mL (≈ 0.073 µM), respectively. For `O=C(NCc1ccc(N2CCSCC2)cc1)c1cc([N+](=O)[O-])cc([N+](=O)[O-])c1` the same measures were 0.085 µg/mL (≈ 0.211 µM) and 0.017 µg/mL (≈ 0.0422 µM).

Take `O=C(NCc1ccc(N2CCC(c3ccc(OC(F)(F)F)cc3)CC2)cc1)c1cc([N+](=O)[O-])cc([N+](=O)[O-])c1`: the results for the MIC90 in assay [2] and in assay [3] were 0.474 µg/mL (≈ 0.871 µM) and 0.21 µg/mL (≈ 0.386 µM), respectively. For `O=C(NCc1ccc(N2CCN(c3ccc(F)cc3)CC2)cc1)c1cc([N+](=O)[O-])cc([N+](=O)[O-])c1` the same measures were 0.077 µg/mL (≈ 0.161 µM) and 0.047 µg/mL (≈ 0.098 µM). Consider `O=C(NCc1ccc(N2CCC(C(F)(F)F)CC2)cc1)c1cc([N+](=O)[O-])cc([N+](=O)[O-])c1`, for which the MIC90 (in general, an inhibitory concentration at the 90% level, which refers to growth in some studies and to a panel of isolates in others) in assay [2] was 0.075 µg/mL (≈ 0.166 µM); in assay [3], less than 0.016 µg/mL. For the compound `O=C(NCc1ccc(N2CCC(C(F)(F)F)CC2)cc1)c1cc([N+](=O)[O-])cc(C(F)(F)F)c1`, the results for the MIC90 in assay [2] and in assay [3] were greater than 40 µg/mL and 0.138 µg/mL (≈ 0.29 µM), respectively.

For the compound `NNC(=O)c1ccncc1` [ISONIAZID], the MIC90 in assay [2] and in assay [3] was greater than 40 µg/mL in each case.

In the case of `O=c1nc(N2CCN(CC3CCCCC3)CC2)sc2c([N+](=O)[O-])cc(C(F)(F)F)cc12` [MACOZINONE], the MIC90 in assay [2] stood at 0.232 µg/mL (≈ 0.508 µM); in assay [3] it was 0.116 µg/mL (≈ 0.254 µM). For `CO[C@H]1/C=C/O[C@@]2(C)Oc3c(C)c(O)c4c(O)c(c(/C=N/N5CCN(C)CC5)c(O)c4c3C2=O)NC(=O)/C(C)=C\C=C\[C@H](C)[C@H](O)[C@@H](C)[C@@H](O)[C@@H](C)[C@H](OC(C)=O)[C@@H]1C` [RIFAMPIN], in that order: greater than 40 µg/mL and greater than 40 µg/mL.
